Here are results for 26 molecules from PMC8286840, “Identifying SARS-CoV-2 antiviral compounds by screening for small molecule inhibitors of Nsp3 papain-like protease” (Biochemical Journal, 2021).

Structures can show the parent of a compound that is named as a salt. Where two headings read alike, the source gives them in different places.

Assay [1] has as its target T1, SARS-CoV-2 PLpro (nsp3 1564–1878) (Severe acute respiratory syndrome coronavirus 2, UniProt P0DTD1). The assay can be described thus: biochemical. More on the design: FRET-quenched peptide (Pro3) cleavage by PLpro, 10 min pre-incubation, slope over 20 min, normalised to no-compound control. To be noted: high concentration screen, read-out: % of control remaining.
Assay [2] addresses T1, SARS-CoV-2 PLpro (nsp3 1564–1878). The assay can be described thus: biochemical. Also noted: FRET-quenched peptide (Pro3) cleavage by PLpro, 10 min pre-incubation, slope over 20 min, normalised to no-compound control. To be noted: low concentration screen, read-out: % of control remaining.

With `NCCCC(O)(P(=O)(O)O)P(=O)(O)O` [Alendronate], in assay [1] (Well no.=2079), the remaining activity at 3.75 µM is 104%. For the same molecule, in assay [2] (Well no.=2079), the remaining activity at 1.25 µM was 105%.

On to `Oc1cc(O)cc(/C=C/c2ccc(O)c(O)c2)c1` [Piceatannol], for which the remaining activity at 3.75 µM in assay [1] (Well no.=948) is 92.7%; in assay [1] (Well no.=3084), 98.8%; in assay [1] (Well no.=3939), 102%. Also, the remaining activity at 1.25 µM in assay [2] (Well no.=948) came to 98.3%; in assay [2] (Well no.=3084) it was 107%; in assay [2] (Well no.=3939) it was 105%.

`CCOCCn1c(C2CCN(CCc3ccc(C(C)(C)C(=O)O)cc3)CC2)nc2ccccc21` [Bilastine]: in assay [1] (Well no.=6188), the remaining activity at 3.75 µM is 100%. In addition, the remaining activity at 1.25 µM in assay [2] (Well no.=6188) worked out at 101%.

On to `CC1(C)CC(=O)C2=C(C1)NC(=S)NC2c1cccc(O)c1` (stereo not shown) [4-(3-hydroxyphenyl)-7,7-dimethyl-2-thioxo-2,3,4,6,7,8-hexahydro-5(1H)-quinazolinone], for which the remaining activity at 3.75 µM in assay [1] (Well no.=5634) was found to be 95.1%. Besides, the remaining activity at 1.25 µM in assay [2] (Well no.=5634) came to 94.5%.

With `Cc1ccc(S(=O)(=O)N2c3ccccc3Oc3ccccc32)cc1` [10-[(4-methylphenyl)sulfonyl]-10H-phenoxazine], the remaining activity at 3.75 µM in assay [1] (Well no.=6041) worked out at 96.7%. The remaining activity at 1.25 µM in assay [2] (Well no.=6041) is 96.2%.

As for `C[C@@H](N)C(=O)O` [D-Alanine], in assay [1] (Well no.=7693), the remaining activity at 3.75 µM was 105%. Also, the remaining activity at 1.25 µM in assay [2] (Well no.=7693) stood at 107%.

As for `CCOc1cc(C(C)(C)C)ccc1C1=N[C@@](C)(c2ccc(Cl)cc2)[C@@](C)(c2ccc(Cl)cc2)N1C(=O)N1CCN(CCCS(C)(=O)=O)CC1` [RG7112], the remaining activity at 3.75 µM in assay [1] (Well no.=6676) was 94%. Besides, the remaining activity at 1.25 µM in assay [2] (Well no.=6676) is 94.8%.

Regarding `c1ccc(-c2n[nH]c3c2oc2ccccc23)cc1` [GTP-14564], the remaining activity at 3.75 µM in assay [1] (Well no.=2417) amounted to 105%. Besides, the remaining activity at 1.25 µM in assay [2] (Well no.=2417) was determined as 104%.

Turning to `O=C1NC(=O)C(Cc2ccc3cc(OCc4ccccc4F)ccc3c2)S1` (stereo not shown) [5-({6-[(2-fluorobenzyl)oxy]-2-naphthyl}methyl)-1,3-thiazolidine-2,4-dione], the remaining activity at 3.75 µM in assay [1] (Well no.=5872) was determined as 97.8%. Also, the remaining activity at 1.25 µM in assay [2] (Well no.=5872) was determined as 104%.

Turning to `COc1ccc2[nH]cc(CCNC(C)=O)c2c1` [Melatonin], the remaining activity at 3.75 µM in assay [1] (Well no.=1072) was 101%; in assay [1] (Well no.=1665), 107%; in assay [1] (Well no.=3320), 98.5%; in assay [1] (Well no.=6347) it was 102%; in assay [1] (Well no.=6565), 96.1%. Further, the remaining activity at 1.25 µM in assay [2] (Well no.=1072) came to 98.6%; in assay [2] (Well no.=1665), 106%; in assay [2] (Well no.=3320) it was 99.3%; in assay [2] (Well no.=3990), 101%; in assay [2] (Well no.=6347), 97.8%; in assay [2] (Well no.=6565) it was 103%.

In the case of `CCc1cc(C(N)=S)ccn1` [Ethionamide], the remaining activity at 3.75 µM in assay [1] (Well no.=5347) stood at 95.4%. Further, the remaining activity at 1.25 µM in assay [2] (Well no.=5347) amounted to 96.4%.

Regarding `S=c1[nH]cnc2nc[nH]c12` [Mercaptopurine], the remaining activity at 3.75 µM in assay [1] (Well no.=4771) was determined as 105%. Moreover, the remaining activity at 1.25 µM in assay [2] (Well no.=4771) turned out to be 104%.

With `COCCCOc1ccnc(C[S+]([O-])c2nc3ccccc3[nH]2)c1C` (stereo not shown) [sodium 2-((4-(3-methoxypropoxy)-3-methylpyridin-2-yl)methylsulfinyl)benzo[d]imidazol-1-ide], the remaining activity at 3.75 µM in assay [1] (Well no.=6070) stood at 93.7%. The remaining activity at 1.25 µM in assay [2] (Well no.=6070) came out at 95.8%.

Consider `CCCN1CCC[C@H](c2cccc(O)c2)C1` [R(+)-3PPP hydrochloride], for which the remaining activity at 3.75 µM in assay [1] (Well no.=1261) is 107%. The remaining activity at 1.25 µM in assay [2] (Well no.=1261) was found to be 105%.

Consider `Cc1c2c(nn1C)CSCc1cc(n(C)n1)CSc1cc(c3ccccc3c1)OCCCc1c(C(=O)O)n(C)c3c-2c(Cl)ccc13` [AZD-5991], for which, in assay [1] (Well no.=7076), the remaining activity at 3.75 µM is 98.9%. Moreover, in assay [2] (Well no.=7076), the remaining activity at 1.25 µM amounted to 101%.

Turning to `O=C(Nc1cccc(Cl)c1)Nc1ncc(CCNc2ncnc3ccsc23)s1` [SNS-314], in assay [1] (Well no.=2893), the remaining activity at 3.75 µM came out at 101%. The remaining activity at 1.25 µM in assay [2] (Well no.=2893) was determined as 101%.

On to `CC(ONC(=O)c1cc(C(F)(F)F)cc(C(F)(F)F)c1)C(=O)Nc1ccc(Cl)cc1` (stereo not shown) [CCG-1423], for which, in assay [1] (Well no.=7811), the remaining activity at 3.75 µM stood at 101%. Further, the remaining activity at 1.25 µM in assay [2] (Well no.=7811) was 99.2%.

Regarding `COc1ccc(/C=C/c2cc(OC)cc(=O)o2)cc1` [Yangonin], the remaining activity at 3.75 µM in assay [1] (Well no.=3765) stood at 90.6%. For the same molecule, the remaining activity at 1.25 µM in assay [2] (Well no.=3765) is 90.2%.

Consider `CC1(C)S[C@@H]2[C@H](NC(=O)[C@H](NC(=O)N3CCN(S(C)(=O)=O)C3=O)c3ccccc3)C(=O)N2[C@H]1C(=O)O` [Mezlocillin (sodium)], for which the remaining activity at 3.75 µM in assay [1] (Well no.=7790) is 102%. In addition, in assay [2] (Well no.=7790), the remaining activity at 1.25 µM turned out to be 99.7%.

Regarding `NC(=O)c1cc(-c2ccc(S(=O)(=O)[C@H]3CC[C@H](Nc4ccc(C(F)(F)F)cn4)CC3)cc2)ccn1` [CCR6 inhibitor 1], the remaining activity at 3.75 µM in assay [1] (Well no.=8609) stood at 99%. In assay [2] (Well no.=8609), the remaining activity at 1.25 µM stood at 103%.

Consider `Cc1cc2c(OCC(CNC(C)(C)C)OC(=O)c3ccccc3)cccc2[nH]1` (stereo not shown) [Bopindolol], for which the remaining activity at 3.75 µM in assay [1] (Well no.=1892) is 97.2%. Also, in assay [2] (Well no.=1892), the remaining activity at 1.25 µM came to 96.2%.

Consider `CCOC(=O)[C@H](CCc1ccccc1)N[C@H]1CS[C@H](c2cccs2)CN(CC(=O)O)C1=O` [Temocapril HCl], for which the remaining activity at 3.75 µM in assay [1] (Well no.=4764) came out at 109%. The remaining activity at 1.25 µM in assay [2] (Well no.=4764) is 106%.

With `CC1=C(/C=C/C(C)=C/C=C/C(C)=C/C(=O)O)C(C)(C)CCC1` [Retinoic acid], the remaining activity at 3.75 µM in assay [1] (Well no.=1252) came out at 98.8%; in assay [1] (Well no.=1628), 99.6%; in assay [1] (Well no.=3132), 104%; in assay [1] (Well no.=4426) it was 101%; in assay [1] (Well no.=6163), 108%. The remaining activity at 1.25 µM turned out to be 98% in assay [2] (Well no.=1252); 95.7% in assay [2] (Well no.=1628); 102% in assay [2] (Well no.=3132); 101% in assay [2] (Well no.=4426); 106% in assay [2] (Well no.=6163).

In the case of `NCC(CP(=O)(O)O)c1ccc(Cl)cc1` (stereo not shown) [Phaclofen], the remaining activity at 3.75 µM in assay [1] (Well no.=1167) turned out to be 104%. In addition, the remaining activity at 1.25 µM in assay [2] (Well no.=1167) is 103%.

Regarding `CN1CCN(c2cc(-c3ccccc3)nc(N)n2)CC1` [VUF10460], the remaining activity at 3.75 µM in assay [1] (Well no.=7041) worked out at 105%. The remaining activity at 1.25 µM in assay [2] (Well no.=7041) was found to be 105%.

In the case of `CN1C(=O)/C(=C2/C(=O)Nc3ccccc32)c2ccccc21` [Meisoindigo], the remaining activity at 3.75 µM in assay [1] (Well no.=6772) stood at 95%. For the same molecule, the remaining activity at 1.25 µM in assay [2] (Well no.=6772) came out at 94.5%.
